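Cells were grown in 96-well plates and exposed to each compound for 48 hours at five concentrations; endpoints were interpolated linearly between bracketing concentrations, or set to the highest concentration if not reached. Abbreviation: GI50, concentration required for 50% inhibition of growth. TGI is the concentration that stops growth completely.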
What was measured:
Experiment in all cases: NCI tumour cell line growth inhibition, 48 h
CCRF-CEM leukemia = system: CCRF-CEM leukemia
COLO 205 colon = system: COLO 205 colon
LOX IMVI melanoma = system: LOX IMVI melanoma
NCI-H226 lung = system: NCI-H226 lung
RXF 393 renal = system: RXF 393 renal
SNB-19 CNS = system: SNB-19 CNS
SNB-75 CNS = system: SNB-75 CNS
UACC-257 melanoma = system: UACC-257 melanoma
UACC-62 melanoma = system: UACC-62 melanoma
K-562 leukemia = system: K-562 leukemia

Structure (SMILES) | TGI (CCRF-CEM leukemia) | TGI (COLO 205 colon) | TGI (LOX IMVI melanoma) | TGI (NCI-H226 lung) | TGI (RXF 393 renal) | TGI (SNB-19 CNS) | TGI (SNB-75 CNS) | TGI (UACC-257 melanoma) | TGI (UACC-62 melanoma) | TGI (K-562 leukemia) | GI50 (CCRF-CEM leukemia) | GI50 (COLO 205 colon) | GI50 (K-562 leukemia) | GI50 (LOX IMVI melanoma) | GI50 (RXF 393 renal) | GI50 (SNB-19 CNS) | GI50 (SNB-75 CNS) | GI50 (UACC-62 melanoma) | GI50 (NCI-H226 lung) | GI50 (UACC-257 melanoma)
CCOC(=N)CC(=O)Nc1cccc(C)c1C | > 100 µM | > 100 µM | > 100 µM | > 100 µM | > 100 µM | > 100 µM | > 100 µM | > 100 µM | > 100 µM |  |  |  |  |  |  |  |  |  |  | 
CCCCOC(=O)NC(=O)c1cn(CCCOC(=O)NCCCCCCNC(=O)OCCCn2cc(C(=O)NC(=O)OCCCC)c(=O)[nH]c2=O)c(=O)[nH]c1=O |  | > 100 µM | > 100 µM |  | > 100 µM | > 100 µM | > 100 µM | > 100 µM | > 100 µM | > 100 µM |  |  |  |  |  |  |  |  |  | 
N#C/C(=C/N1CCN(C(=O)c2ccco2)C1=S)C(=O)c1ccccc1 | > 100 µM | > 100 µM | > 100 µM |  | 19.4 µM | > 100 µM | > 100 µM |  | 30.3 µM | > 100 µM | 41.9 µM | 23.2 µM | 5.51 µM | 17.9 µM | 4.09 µM | 39.7 µM | 68.2 µM | 12.9 µM |  | 
Cc1cc(S(=O)(=O)N/N=C(\Sc2cc(Cl)c(C)cc2S(N)(=O)=O)c2ccc(Cl)cc2)c(Cl)cc1Cl | > 100 µM | > 100 µM | 99.6 µM | > 100 µM | > 100 µM | > 100 µM |  | > 100 µM | > 100 µM | > 100 µM | 36.8 µM | > 100 µM | 67.7 µM | 30.8 µM | 54.8 µM | > 100 µM |  | > 100 µM | 58.3 µM | 44.5 µM
CC(C)CCCC(C)[C@H]1CCC2[C@H]3C(CC[C@@]21C)[C@@]1(C)CCC=C[C@]12C[C@@H]2[C@@H]3O (some centres undefined) | > 100 µM | > 100 µM | > 100 µM | > 100 µM | > 100 µM | > 100 µM | > 100 µM | > 100 µM | > 100 µM |  |  |  |  |  |  |  |  |  |  | 
Nc1ccn(C2(CO)C=C(CO)C(O)C2O)c(=O)n1 (centres undefined) |  | > 25.8 µM |  | > 25.8 µM | > 25.8 µM | > 25.8 µM | > 25.8 µM | > 25.8 µM | > 25.8 µM | > 25.8 µM |  |  |  |  |  |  |  |  |  | 
Cc1cc(I)cc(CN(C)CCCN2CCOCC2)c1O |  | 29 µM | > 100 µM | > 100 µM | 38.2 µM | > 100 µM | 87.4 µM | 44.8 µM | 30.5 µM | 39.5 µM |  | 14.1 µM | 18 µM | 29.8 µM | 11.8 µM | 67.7 µM | 21 µM | 13.1 µM | 99.9 µM | 21.6 µM
COC(=O)OCC1OC(N2C(=O)NC(=O)C(Br)C2N=[N+]=[N-])CC1OC(=O)OC (centres undefined) | > 100 µM | > 100 µM | > 100 µM | > 100 µM | > 100 µM | > 100 µM | > 100 µM | > 100 µM | > 100 µM |  |  |  |  |  |  |  |  |  |  | 
CC(=O)O[C@H](C[C@H](C(C)C)N(C)C(=O)[C@@H](NC(=O)[C@H]1CCCCN1C)C(C)C)c1nc(C(=O)N[C@@H](Cc2ccccc2)C[C@H](C)C(=O)O)c(CCOCc2ccccc2)s1 | > 10 µM | < 0.001 µM | > 10 µM | 0.00313 µM |  | > 10 µM | 5.67 µM | > 10 µM | > 10 µM | > 10 µM | < 0.001 µM | < 0.001 µM | < 0.001 µM | < 0.001 µM |  | < 0.001 µM | < 0.001 µM | < 0.001 µM | < 0.001 µM | < 0.001 µM
COC(=O)/C(C)=C/[N+](=O)[O-] | 6.48 µM | 16.6 µM | 38.9 µM |  | 35.6 µM | 32.9 µM | 30.1 µM | 29.3 µM | 32.8 µM | 13.2 µM |  |  |  |  |  |  |  |  |  | 
COc1cc(C2=C(c3cn(C)c4ccccc34)COC2=O)cc(OC)c1OC | > 100 µM | 1.28 µM |  | 7.3 µM | 0.555 µM | > 100 µM | 0.522 µM |  |  | > 100 µM | 0.0592 µM | 0.0648 µM | 0.037 µM |  | 0.133 µM | 0.16 µM | 0.0438 µM |  | 1.1 µM | 
Nc1nc(CCl)nc(Nc2ccccc2)n1 | 4.58 µM | 43.4 µM |  | 43.3 µM |  | > 100 µM | 50.3 µM | 71.9 µM | 34.6 µM |  |  |  |  |  |  |  |  |  |  | 
CCC(C)(C)c1ccc(OCCCCCCN2CCNCC2)cc1 | 4.64 µM | 3.51 µM | 3.21 µM | 18 µM | 2.92 µM |  | 3.51 µM | 4.43 µM | 3.52 µM | 3.93 µM | 1.43 µM | 1.77 µM | 1.7 µM | 1.76 µM | 1.47 µM |  | 1.46 µM | 1.76 µM | 3.87 µM | 2.11 µM
Cc1ccc(C2(O)CC(c3ccc([N+](=O)[O-])o3)=NN2C(=O)COc2ccc(Cl)cc2)cc1 (centres undefined) |  | 15.3 µM | 19 µM | 39.7 µM |  | 67.3 µM | > 48.3 µM | 17 µM | 15.1 µM | > 100 µM |  |  |  |  |  |  |  |  |  | 
N=C(N)SCc1cccc(-c2nc3ccccc3c(=O)o2)c1 |  | > 100 µM | > 100 µM | > 100 µM | > 100 µM | > 100 µM | > 100 µM | > 100 µM | > 100 µM | > 100 µM |  |  |  |  |  |  |  |  |  | 
O=c1[nH]cnc2cccc(Cl)c12 | > 100 µM | > 100 µM |  | > 100 µM | > 100 µM | > 100 µM | > 100 µM | > 100 µM | > 100 µM | > 100 µM |  |  |  |  |  |  |  |  |  | 
CCCCC1(CN2CCOCC2)S/C(=N/c2nc(CC(=O)OCC)cs2)NC1=O (centres undefined) |  | > 100 µM | 42.5 µM | > 100 µM | 86.1 µM | > 100 µM | > 100 µM | > 100 µM | > 100 µM | > 100 µM |  | 30.1 µM | 30.9 µM | 20.3 µM | 27.6 µM | 38.4 µM | 29.4 µM | 28.3 µM | 38.6 µM | 40.4 µM
COc1cc2cccc(N=Cc3cccc(OC)c3OC(C)C)c2cc1OC | > 100 µM | > 100 µM |  |  |  |  | 49 µM | 52.4 µM | 45.6 µM | 89 µM |  |  |  |  |  |  |  |  |  | 
CN1NC(=Nc2ccccc2)Sc2c1cnn(-c1ccccc1)c2=O | > 100 µM | > 100 µM | > 100 µM |  | > 100 µM | > 100 µM |  | > 100 µM | > 100 µM | > 100 µM |  |  |  |  |  |  |  |  |  | 
